SMILES strings stand for the structures.

For one data set, the system named is mESC and MEF. The experiment in a line: Secondary screening by flow cytometry (mESC and MEF incubated separately). The data set is classed as cell-based, mouse. Conditions: 2 μM, 1 hour. As to the method: To evaluate the application of chalcone derivatives as ESC-selective probes, 320 chalcone compounds were screened in mouse ESC (mESC) and mouse embryonic fibroblast (MEF) feeder cells prepared on 384-well cell culture microplates. From the image-based primary screening, 8 compounds that stained mESC consistently with stronger intensity than MEF were selected. For the secondary screening, mESC and MEF were incubated separately with each of the hit compounds and subsequently analyzed using flow cytometry.
(§1) MEFs and mESCs were cultured in 60 mm culture dish for 1 hour in the presence of 2 μM of hit compounds, including CDg4. The cells were harvested by trypsin treatment, washed with PBS and resuspended in PBS. The fluorescence intensity of the cells was measured on Flow Cytometry (BD™ LSR II) with FITC ([…], emission at 560 nm). The dot plot images for each cell type were overlaid using FlowJo7 (Three Star Inc.) For FACS MEF and mESC were cultured in a same dish and the sample was prepared as described above for flow cytometry. The cells gated into SSClow CDgreen4 bright and SSChigh CDgreen4 dim regions were collected using a FACS machine (BD FACSAria™).

A further data set has as its system mixture of mESC and MEF. The data set is described as follows: Enrichment of mESC from mESC/MEF mixture using FACS and fluorescence microscopy. Format: cell-based, mouse. Conditions: for mESC enrichment / sorting from mixed-cell population: FACS, mESC and MEF in same dish; for selective staining of ESC versus MEF feeder: live mESC cultured on MEF feeder, fluorescence microscopy. As to the method: To confirm the secondary screening data, a mixture of mESC and MEF was incubated with […]. The cell mixture was sorted using Fluorescence-Activated Cell Sorting (FACS).
as §1

Data set [1] relates to induced pluripotent stem cell (iPSC). The data set is described as follows: Staining and FACS isolation of induced pluripotent stem cells. Conditions: iPSC from MEF of Oct4-GFP transgenic mice. Format: cell-based, mouse. The protocol: The iPS cells were maintained in mESC culture medium which was changed every day until designated time point. 4 dpi iPS was incubated with 2 μM of CDg4 for 1 hr at 37° C. The cells were harvested by trypsin treatment, washed with PBS and resuspended in PBS. The cells gated into SSClow CDg4 bright (R2) and SSChigh CDg4 dim (R1) regions were collected using a FACS machine (BD FACSAria™).
CDg4 was applied to induced pluripotent stem cell (iPSC) which was generated from MEF of transgenic mice that express GFP under the control of Oct4 (also known as Pou5f1) promoter. […] FACS was used to isolate early iPS cell population stained by CDg4. (FIG. 2). Isolation of the early iPS cell population will facilitate gene profiling using DNA microarray of this cell population. While gene expression profiling for mixture populations or using cell lines are reported, with lack of direct marker or probes for early iPS, it was not possible to study with purified early iPS.
The retroviral packaging cell, PlatE cell, was maintained in DMEM containing 10% FBS, 100 U/ml penicillin, 100 μg/ml streptomycin, 10 μg/ml blasticidin 5 and 1 μg/ml puromycin. […]

A short description of data set [2]: Fluorescence property measurement. Format: physicochemical. As to the method: All reactions were performed in oven-dried glassware under a positive pressure of nitrogen. Unless otherwise noted, starting materials and solvents were purchased from Aldrich and Acros Organics and used without further purification. Analytical TLC was carried out on Merck 60 F254 silica gel plate (0.25 mm layer thickness) and visualization was done with UV light. Column chromatography was performed on Merck 60 silica gel (230-400 mesh). NMR spectra were recorded on a Bruker Avance 300 NMR spectrometer. Chemical shifts are reported as δ in units of parts per million (ppm) and coupling constants are reported as a J value in Hertz (Hz). Mass of all the compounds was determined by LC-MS of Agilent Technologies with an electrospray ionization source. All fluorescence assays were performed with a Gemini XS fluorescence plate reader.
10 μM solutions in DMSO were prepared and the absorption and emission of library compounds was measured. FIG. 3 is a representative absorbance and fluorescence spectrum.

With `C=CC(=O)Nc1ccc(C(=O)/C=C/c2ccc(N(C)CCO)cc2)cc1` [CDg4], in the data set with mESC and MEF, the “selectivity for mESCs (side scatter and fluorescence intensity dot plot overlay of mESC and MEF)” value is “most selective for mESCs among the 8 hit compounds”. The “mESC enrichment / sorting from mixed-cell population” value in the data set with mixture of mESC and MEF is “selective sorting and isolation from mixture of Feeder cells even up to day 5”; with mixture of mESC and MEF (listed as CD4), “can be used for mESC enrichment from a mixed-cell population”. Also, the “selective staining of ESC versus MEF feeder” value in the data set with mixture of mESC and MEF was “much more brightly stained by CDg4 than MEF”; with mixture of mESC and MEF (listed as CDgreen4), “selectively stains embryonic stem cells (ESC) and iPSC in a feeder cell-based culture system”. The “staining of iPSC colony” value in data set [1] is given as “selectively stained the iPSC colony”. The λem in data set [2] came out at 560 nm. In data set [2], this compound yielded a λex of 430 nm.

For the origin of these results see patent US8871976B2, “Chalcone structure fluorescence dye for embryonic stem cell probe” (National University of Singapore, priority 2010, dated 2014).
